Where two headings read alike, the source gives them in different places.

Assay [1] deals with MIA PaCa-2 cells (K-Ras G12C). Description: Ras-SOS cellular growth inhibition assay (CellTiter-Glo, 3D). It counts as cell-based. Here is the method:
MIA PaCa-2 (ATCC CRL-1420) and NCI-H1792 (ATCC CRL-5895) cell lines comprise a G12C mutation can be used to assess Ras cellular signaling in vitro, e.g., in response to a subject compound of the present disclosure. […] Cell culture medium (comprising, for example, MIA PaCa-2 cells) is prepared with DMEM/Ham's F12 (e.g., with stable Glutamine, 10% FCS, and 2.5% Horse Serum. NCI-H1792 culture medium is prepared with RPMI 1640 (e.g., with stable Glutamine) and 10% FCS. A CellTiter-Glo (CTG) luminescent based assay (Promega) is used to assess growth of the cells, as a measurement of the ability of the compounds herein to inhibit Ras signaling in the cells. The cells (e.g., 800-1200 per well) are seeded in their respective culture medium in standard tissue culture-treated ultra-low attachment surface 96-well format plates (Corning Costar #3474). The day after plating, cells are treated with a dilution series (e.g., a 9 point 3-fold dilution series) of the compounds herein (e.g., approximately 125 μl final volume per well). Cell viability can be monitored (e.g., approximately 5 days later) according to the manufacturer's recommended instructions, where the CellTiter-Glo reagent is added (e.g., approximately 65 μl), vigorously mixed, covered, and placed on a plate shaker (e.g., approximately for 20 min) to ensure sufficient cell lysis prior to assessment of luminescent signal. The IC50 values are determined using the four-parameter fit. The resulting IC50 value is a measurement of the ability of the compounds herein to reduce cell growth of Ras-driven cells as representative tumor cells.

For assay [2], the target named is SOS1 (Homo sapiens (Human), UniProt Q07889). Description: Ras-SOS interaction assay (HTRF). It counts as biochemical.
Assay [3] has as its system NCI-H1975 cells (EGFR T790M L858R). Description: EGFR-SOS cellular inhibition assay (CellTiter-Glo, 3D). It counts as cell-based.
Where [4] appears, read: Homo sapiens, MIA PaCa-2, 120 h, MIA PaCa-2, 3D proliferation, about 5 days, read-out: Bio-Cell-Prolif-3D (MiaPaca2 IC50).
Setting [5] is: Homo sapiens, MIA PaCa-2, MIA PaCa-2, read-out: IC50 in inhibiting MIA PaCa-2 cell growth.
[6] abbreviates: K-RasG13D utilized, read-out: IC50 inhibition of SOS.
Setting [7] is: K-RasG13D, read-out: IC50 value against SOS1.
Setting [8] is: Homo sapiens, 120 h, NCI-H1975, 3D proliferation, about 5 days, read-out: Bio-Cell-Prolif-3D (H1975 IC50).
Where [9] appears, read: Homo sapiens, NCI-H1975, EGFR T790M L858R, read-out: IC50 in inhibiting growth of NCI-H1975 cell line.

For `CC(C)N1CCC(c2cc3c(N[C@H](C)c4cccc(C(F)(F)F)c4F)ncnc3nc2Cl)CC1` [Compound 384, (R)-7-chloro-N-(1-(2-fluoro-3-(trifluoromethyl)phenyl)ethyl)-6-(1-isopropylpiperidin-4-yl)pyrido[2,3-d] pyrimidin-4-amine], the IC50 in assay [1] (setting [4]) is at most 1000 nM; in assay [1] (setting [5]) it was below 500 nM; in assay [2] (setting [6]), below 100 nM; in assay [2] (setting [7]) it was below 50 nM; in assay [3] (setting [8]) it was at most 1000 nM; in assay [3] (setting [9]) it was below 500 nM.

Turning to `COc1nc2nc(C)nc(N[C@H](C)c3cccc(C(F)(F)F)c3F)c2cc1C1CCN(C(=O)CO)CC1` [Compound 304, (R)-1-(4-(4-((1-(2-fluoro-3-(trifluoromethyl)phenyl)ethyl)amino)-7-methoxy-2-methylpyrido[2,3-d]pyrimidin-6-yl)piperidin-1-yl)-2-hydroxyethan-1-one], the IC50 in assay [1] (setting [4]) was at most 1000 nM; in assay [1] (setting [5]), below 500 nM; in assay [2] (setting [6]), below 100 nM; in assay [2] (setting [7]), below 50 nM; in assay [3] (setting [8]) it was at most 1000 nM; in assay [3] (setting [9]), below 500 nM.

Turning to `COc1nc2nc(C)nc(N[C@H](C)c3cccc(C(F)(F)C(C)(C)OC4CNC4)c3F)c2cc1N1CCN(C(C)C)CC1` [Compound 243, (R)-N-(1-(3-(2-(azetidin-3-yloxy)-1,1-difluoro-2-methylpropyl)-2-fluorophenyl)ethyl)-6-(4-isopropylpiperazin-1-yl)-7-methoxy-2-methylpyrido[2,3-d]pyrimidin-4-amine], the IC50 in assay [1] (setting [4]) is at most 1000 nM; in assay [1] (setting [5]) it was below 500 nM; in assay [2] (setting [6]), below 100 nM; in assay [2] (setting [7]) it was below 50 nM; in assay [3] (setting [8]), at most 1000 nM; in assay [3] (setting [9]) it was below 500 nM.

“4-(4-((1-(3-(difluoro(tetrahydrofuran-3-yl)methyl)-2-fluorophenyl)ethyl)amino)-7-methoxy-2-methylpyrido[2,3-d]pyrimidin-6-yl)tetrahydro-2H-thiopyran 1,1-dioxide [Compound 148]”: the 50% inhibitory concentration (IC50) in assay [1] (MIA PaCa-2, 3D proliferation, about 5 days, read-out: Bio-Cell-Prolif-3D (MiaPaca2 IC50)) was at most 1000 nM; in assay [1] (MIA PaCa-2, read-out: IC50 in inhibiting MIA PaCa-2 cell growth) it was below 500 nM; in assay [2] (setting [6]), below 100 nM; in assay [2] (setting [7]), below 50 nM; in assay [3] (NCI-H1975, 3D proliferation, about 5 days, read-out: Bio-Cell-Prolif-3D (H1975 IC50)), at most 1000 nM; in assay [3] (NCI-H1975, EGFR T790M L858R, read-out: IC50 in inhibiting growth of NCI-H1975 cell line), below 500 nM.

For the compound `Cc1nc(N[C@H](C)c2cccc(C(F)F)c2F)c2cc(N3CCN(C(C)C)CC3)c(OC3COC3)nc2n1` [Compound 336, (R)-N-(1-(3-(difluoromethyl)-2-fluorophenyl)ethyl)-6-(4-isopropylpiperazin-1-yl)-2-methyl-7-(oxetan-3-yloxy)pyrido [2,3-d]pyrimidin-4-amine], the IC50 is at most 1000 nM in assay [1] (setting [4]); below 500 nM in assay [1] (setting [5]); below 100 nM in assay [2] (setting [6]); below 50 nM in assay [2] (setting [7]); at most 1000 nM in assay [3] (setting [8]); below 500 nM in assay [3] (setting [9]).

As to `COCCOc1nc2nc(C)nc(N[C@H](C)c3cccc(C(F)F)c3F)c2cc1N1CCN(C)CC1` [Compound 343, (R)-N-(1-(3-(difluoromethyl)-2-fluorophenyl)ethyl)-7-(2-methoxyethoxy)-2-methyl-6-(4-methylpiperazin-1-yl)pyrido[2,3-d] pyrimidin-4-amine], the IC50 in assay [1] (setting [4]) is at most 1000 nM; in assay [2] (setting [6]) it was below 100 nM; in assay [2] (setting [7]) it was below 50 nM; in assay [3] (setting [8]), at most 1000 nM; in assay [3] (setting [9]) it was below 500 nM.

With `Cc1nc(N[C@H](C)c2cccc(C(F)F)c2F)c2cc(C3CCN(C(C)C)CC3)c(Cl)nc2n1` [Compound 104, (R)-7-chloro-N-(1-(3-(difluoromethyl)-2-fluorophenyl)ethyl)-6-(1-isopropylpiperidin-4-yl)-2-methylpyrido[2,3-d]pyrimidin-4-amine], the IC50 is at most 1000 nM in assay [1] (setting [4]); below 500 nM in assay [1] (setting [5]); below 100 nM in assay [2] (setting [6]); below 50 nM in assay [2] (setting [7]); at most 1000 nM in assay [3] (setting [8]); below 500 nM in assay [3] (setting [9]).

As for `COc1nc2nc(C)nc(N[C@H](C)c3cccc(C(F)F)c3F)c2cc1N1CCN(C2CCOCC2)CC1` [Compound 338, (R)-N-(1-(3-(difluoromethyl)-2-fluorophenyl)ethyl)-7-methoxy-2-methyl-6-(4-(tetrahydro-2H-pyran-4-yl)piperazin-1-yl)pyrido[2,3-d]pyrimidin-4-amine], the IC50 was at most 1000 nM in assay [1] (setting [4]); below 100 nM in assay [2] (setting [6]); below 50 nM in assay [2] (setting [7]); at most 1000 nM in assay [3] (setting [8]); below 500 nM in assay [3] (setting [9]).

As to `COc1nc2nc(C)nc(N[C@H](C)c3cccc(C(F)(F)F)c3F)c2cc1N1CCN(C(=O)CN(C)C)CC1` [Compound 312, (R)-2-(dimethylamino)-1-(4-(4-((1-(2-fluoro-3-(trifluoromethyl)phenyl)ethyl)amino)-7-methoxy-2-methylpyrido[2,3-d]pyrimidin-6-yl)piperazin-1-yl)ethan-1-one], the IC50 in assay [1] (setting [4]) was at most 1000 nM; in assay [1] (setting [5]), below 500 nM; in assay [2] (setting [6]), below 100 nM; in assay [2] (setting [7]), below 50 nM; in assay [3] (setting [8]) it was at most 1000 nM; in assay [3] (setting [9]), below 500 nM.

`Cc1nc(N[C@H](C)c2cccc(C(F)F)c2F)c2cc(C3CCN(C(C)C)CC3)c(OC3CN(C)C3)nc2n1` [Compound 410, (R)-N-(1-(3-(difluoromethyl)-2-fluorophenyl)ethyl)-6-(1-isopropylpiperidin-4-yl)-2-methyl-7-((1-methylazetidin-3-yl)oxy)pyrido[2,3-d]pyrimidin-4-amine]: the IC50 was at most 1000 nM in assay [1] (setting [4]); below 500 nM in assay [1] (setting [5]); below 100 nM in assay [2] (setting [6]); below 50 nM in assay [2] (setting [7]); at most 1000 nM in assay [3] (setting [8]); below 500 nM in assay [3] (setting [9]).

Turning to `CNCCOc1nc2nc(C)nc(N[C@H](C)c3cccc(C(F)F)c3F)c2cc1N1CCN(C(C)C)CC1` [Compound 406, (R)-N-(1-(3-(difluoromethyl)-2-fluorophenyl)ethyl)-6-(4-isopropylpiperazin-1-yl)-2-methyl-7-(2-(methylamino)ethoxy)pyrido[2,3-d] pyrimidin-4-amine], the IC50 in assay [1] (setting [4]) was at most 1000 nM; in assay [1] (setting [5]), below 500 nM; in assay [2] (setting [6]), below 100 nM; in assay [2] (setting [7]), below 50 nM; in assay [3] (setting [8]), at most 1000 nM; in assay [3] (setting [9]), below 500 nM.

In the case of `COc1nc2nc(C)nc(N[C@H](C)c3cccc(C(F)(F)C(C)(C)O)c3)c2cc1C1CCS(=O)(=O)CC1` [Compound 173, (R)-4-(4-((1-(3-(1,1-difluoro-2-hydroxy-2-methylpropyl)phenyl)ethyl)amino)-7-methoxy-2-methylpyrido[2,3-d]pyrimidin-6-yl)tetrahydro-2H-thiopyran 1,1-dioxide], the IC50 in assay [1] (setting [4]) was 1000 to 10000 nM; in assay [2] (setting [6]) it was below 100 nM; in assay [2] (setting [7]), below 50 nM; in assay [3] (setting [8]), at most 1000 nM; in assay [3] (setting [9]) it was below 500 nM.

Turning to `Cc1nc(N[C@H](C)c2cccc(C(F)F)c2F)c2cc(C3CCS(=O)(=O)CC3)c(Cl)nc2n1` [Compound 389, (R)-4-(7-chloro-4-((1-(3-(difluoromethyl)-2-fluorophenyl)ethyl)amino)-2-methylpyrido[2,3-d]pyrimidin-6-yl)tetrahydro-2H-thiopyran 1,1-dioxide], the IC50 in assay [1] (setting [4]) is at most 1000 nM; in assay [1] (setting [5]), below 500 nM; in assay [2] (setting [6]), below 100 nM; in assay [2] (setting [7]) it was below 50 nM; in assay [3] (setting [8]) it was at most 1000 nM; in assay [3] (setting [9]), below 500 nM.

(Values after patent publication US11648254B2 (Kumquat Biosciences Inc., priority 2021, dated 2023).)
